{"source": "patent US20240325274A1", "about": "“SUPRAMOLECULAR AMINO ACID OR SALT THEREOF, AND PREPARATION METHOD THEREFOR AND APPLICATION THEREOF” (SUZHOU OULIT BIOPHARM CO., LTD., priority 2021, published 2024)", "key": {"[1]": {"assay": "Detergency evaluation: color cosmetics on arms of 5 subjects", "design": "key: 5 denotes the best; 3 denotes moderate; 1 denotes the worst", "settings": "1 g of 4% aqueous solution with 0.54% sodium hydroxide; graded by 5 subjects", "from_the_text": "(§1) Three sets of color cosmetics (lipstick+eyeliner) were applied to the arms of 5 subjects with similar areas and thicknesses. The cosmetics were washed with the aqueous solutions in Table 6 (1 g of each) and then rinsed with tap water (the detergency was graded by the 5 subjects comprehensively)."}, "[2]": {"assay": "pH, appearance and smell of neutralized aqueous solutions", "type": "physicochemical", "settings": "4% in water with 0.54% sodium hydroxide (Table 6)", "protocol": "as §1\nThe preparation procedures are as follows: Two 500-g beakers were weighed on an electronic balance, and the weights of the beakers were recorded; a proper amount of deionized water was weighed and added to the beakers according to the formula, and the beakers were heated to 75-80° C. in a water bath. The temperature of the water in the beaker was measured by a thermometer. […] At the start of the stirring, a proper amount of arginine was added to beaker (1) and a proper amount of 10% aqueous sodium hydroxide solution was added to beaker (2). The mixtures were stirred for 1 min. The temperature of the beakers (1) and (2) was reduced to 25° C. by running tap water. The evaporated water in the two beakers in the preparation process was compensated by cooled deionized water to 100% on an electronic balance. The pH of the products in the beaker (1) and (2) was measured, the appearance was observed, and the smell was confirmed."}, "C. albicans (ATCC 10231)": {"system": "C. albicans (ATCC 10231)", "settings": "10 g in 100 mL neutralized with NaOH to pH 6-7", "protocol": "(§2) A 10% aqueous sodium hydroxide solution was added to neutralize the mixture to pH 6-7. The volume of the aqueous solution was brought to 100 mL. Fruits pre-inoculated with common microorganisms such as Staphylococcus aureus, Escherichia coli, Pseudomonas aeruginosa, Candida albicans, and the like were soaked in 5 mL of the stock solution (the solution neutralized by sodium hydroxide) for a certain period of time, and washed with clean water. The microorganism residues on the fruits were determined."}, "E. coli (8099)": {"system": "E. coli (8099)", "protocol": "as §2"}, "S. aureus (ATCC 6538)": {"system": "S. aureus (ATCC 6538)", "settings": "10 g in 100 mL neutralized with NaOH to pH 6-7", "protocol": "as §2"}, "[3]": {"protocol": "Two 100-g aliquots of bok choy pre-sprayed with pesticides methamidophos and acephate were taken. One was directly soaked in 1 L of clean water and detected for the pesticide residues, denoted as “before washing”. […] The procedures are as follows:\nA 10% aqueous sodium hydroxide solution was added to neutralize the mixture to pH 6-7. The volume of the aqueous solution was brought to 100 mL. The second 100-g aliquot of bok choy pre-sprayed with pesticides methamidophos and acephate was shredded, soaked in 5 mL of the stock solution for 2 min, washed with 500 mL of clean water, and detected for the pesticide residues."}, "[4]": {"settings": "cloths soaked in 5 mL stock solution for 2 min, washed with water, aired", "protocol": "A 10% aqueous sodium hydroxide solution was added to neutralize the mixture to pH 6-7. The volume of the aqueous solution was brought to 100 mL. Cotton cloths of 10 square centimeters with peculiar smell (smell, engine oil smell, odor, etc.) were soaked in 5 mL of stock solution for 2 min, taken out, washed with water, and dried by airing."}, "[5]": {"assay": "Qualitative household application test", "settings": "12% aqueous solution of sodium salt", "description": "For the surface of the electric rice cookers, especially the sticky bottoms, the greasy stains on the surface were wiped several times by using rags or paper towels soaked in the solutions and then wiped by using a clean cloth."}}, "data": [{"molecule": "CCCCCCCCCCCC(=O)N[C@@H](C)C(=O)O", "note": "[Comparative Example 1, N-lauroyl-L-alanine]", "values": [{"measurement": "Detergency", "setting": "[1]", "value": 3}, {"measurement": "Appearance", "setting": "[2]", "value": "Transparent"}, {"measurement": "pH value", "setting": "[2]", "value": 8.07}]}, {"molecule": "CCCCCCCCCCCC(=O)N[C@@H](C)C(=O)O", "note": "[Comparative Example 2, N-lauroyl-L-alanine]", "values": [{"measurement": "Detergency", "setting": "[1]", "value": 1}, {"measurement": "Appearance", "setting": "[2]", "value": "Transparent"}, {"measurement": "pH value", "setting": "[2]", "value": 6.56}]}, {"molecule": "N-lauroyl-L-alanine supramolecule [Example 1]", "values": [{"measurement": "Inhibition of C. albicans (ATCC 10231), % (after 5 minutes)", "setting": "C. albicans (ATCC 10231)", "value": 100, "unit": "%"}, {"measurement": "Inhibition of E. coli (8099), % (after 2 minutes)", "setting": "E. coli (8099); after 2 minutes, 10 g in 100 mL neutralized with NaOH to pH 6-7, fruits soaked in 5 mL stock solution", "value": 98.5, "unit": "%"}, {"measurement": "Inhibition of E. coli (8099), % (after 5 minutes)", "setting": "E. coli (8099); after 5 minutes, 10 g in 100 mL neutralized with NaOH to pH 6-7", "value": 100, "unit": "%"}, {"measurement": "Inhibition of S. aureus (ATCC 6538), % (after 2 minutes)", "setting": "S. aureus (ATCC 6538); after 2 minutes", "value": 100, "unit": "%"}, {"measurement": "Inhibition of S. aureus (ATCC 6538), % (after 5 minutes)", "setting": "S. aureus (ATCC 6538); after 5 minutes", "value": 100, "unit": "%"}, {"measurement": "Acephate, Percentage removal, %", "setting": "[3]; 2 min of treatment", "value": 86.37, "unit": "%"}, {"measurement": "Methamidophos, Percentage removal, %", "setting": "[3]; 2 min of treatment", "value": 76.19, "unit": "%"}, {"measurement": "Methamidophos residue, After cleaning", "setting": "[3]; bok choy soaked in 5 mL stock solution for 2 min, washed with 500 mL clean water, before washing 16.42 mg/kg", "value": 3.91, "unit": "mg/kg"}, {"measurement": "Acephate residue, After cleaning", "setting": "[3]; bok choy soaked in 5 mL stock solution for 2 min, washed with 500 mL clean water, before washing 37.57 mg/kg", "value": 5.12, "unit": "mg/kg"}, {"measurement": "Deodorization effect on cotton cloths", "setting": "[4]", "value": "the smells on the cotton cloths were completely eliminated"}, {"measurement": "Detergency", "setting": "[1]", "value": 5}, {"measurement": "Detergency on surfaces of cooking benches and kitchen hoods", "setting": "[5]", "value": "excellent detergency"}]}]}
